The values below are quoted from earlier work in patent US20120208745A1, “TREATMENT OF HIV” (priority 2006, published 2012).

Data set [1] concerns IL-1. As to conditions: whole blood of HIV patients stimulated with LPS; concentration-dependent.
Data set [2] concerns TNF-α. As to conditions: whole blood of HIV patients stimulated with LPS; concentration-dependent.
The test system of data set [3] is IL-1β. The conditions noted are these: normal PBMC, induced by HIV envelope glycoprotein gp 120.
For data set [4], the system named is TNF-α. As to conditions: normal PBMC, induced by HIV envelope glycoprotein gp 120.

Where two headings read alike, the source gives them in different places.

Turning to “ACTH (1-24): Melanocortin peptide, fragment 1-24 of adrenocorticotropic hormone (SYSMEHFRWGKPVGKKRRPVKVYP; Corticotropin; UniProt P01189 138-161, looked up, fragment)”, the “production of IL-1” value in data set [1] is “reduced”. For the same substance, the “production of TNF-α” value in data set [2] is reported as “reduced”.

As for “adrenocorticotropic hormone [ACTH (1-39)] (SYSMEHFRWGKPVGKKRRPVKVYPNGAEDESAEAFPLEF; Corticotropin; UniProt P01189 138-176, looked up) [Proopiomelanocortin-derived melanocortin peptide]”, the “production of IL-1” value in data set [1] is listed as “reduced”. For the same substance, the “production of TNF-α” value in data set [2] was “reduced”.

Take “α-melanocyte-stimulating hormone [α-MSH (1-13), α-melanocyte-stimulating hormone [α-MSH (1-13)]]”: the “production of IL-1” value in data set [1] is “reduced”. Also, the “production of TNF-α” value in data set [2] is “reduced”; in data set [4], “inhibit”. Further, the “production of IL-1β” value in data set [3] is reported as “inhibit”.
